Assays:
CCl4-treated rat model = test: Hepatoprotective activity in CCl4-treated rat model; type: in vivo, male Wistar rats; settings: CCl4-treated rats
Procedure: Hepatoprotective activity was determined for both the microsphere formulation and i.v. solution administration of 4-chlorocurcumin following a protocol reported previously. Another set of rats were used in this study. Male rats weighing around 150-200 g was used in this study. For this experiment, animals were divided into 6 different groups. Group I were normal control. Group II was given carbontetrachloride regularly and it served as toxic control. Group II received CCl4 at a dose of 0.7 ml/kg by intraperitonial route on the 3rd, 6th and 9th day consisting of mixture of CCl4 and olive oil (25:75). Group III received the drug in the solution form by i.v. route. Group III received 4-chlorocurcumin dissolved in PEG 600 solution at a rationale of 1 mg/ml by intravenous route twice daily. Group IV received 4-chlorocurcumin microsphere formulation one time in the beginning of the experiment. Microspheres 2 was administered for this purpose. A 20 mg of formulation was dispersed in 1 ml normal saline and was administered intraperitoneally. Group V were injected with placebo microspheres and Group VI served as a control for PEG injected and was injected 1 ml of PEG solution twice a day. Serum samples were procured from the blood samples collected from common carotid artery on the final day of experimentation prior to sacrifice of the animal. The blood samples collected were subjected to centrifugation for 15 min at 3000 rpm and the serum separated was transferred into fresh empty microcentrifuge tube and was stored in deep freeze for pharmacodynamic evaluation. Hepatoprotective activity was quantified by the activity of SGOT, SGPT levels present in the serum samples and the method used for quantification was modified IFFC method. Subsequently, livers of the all rats in each group were further sent for histopathological studies and for this purpose at the end of the study the rats were sacrificed, the livers were separated carefully and were transferred to sterile containers having formalin solution. Liver sections were subsequently prepared using a previously published method.

[1] = Pharmacokinetics of 4-chlorocurcumin in rats; type: in vivo; settings: male, Wistar, blood, iv; rat, i.v. solution, 2.8 mg
Procedure: From the data of the release studies, a suitable microsphere formulation to be used further in the rat studies was selected. For in vivo characterization, in vivo drug release (pharmacokinetic study) and reduction in hepatoprotective activity in a CCl4-treated rat model were determined. Pharmacokinetics of the formulation was studied in male Wistar rats. After procurement of the rats, these were acclimatized for 10 days prior to the conduction of the experiment. Rats were injected one time with microsphere suspension containing 2.8 mg of active drug intraperitoneally. A 20 mg microsphere suspension was dispersed in 1 ml normal saline and was injected. Parallel to the microsphere administration, another dose of the drug in the form of solution was administered via i.v. route in another set of rats. In this case drug was administered at an equivalent dose of 2.8 mg. Blood was periodically collected from retroorbital sinus and assayed for the drug using a HPLC standard developed using a previously reported method. The mobile phase consisted of methanol:water at a ratio of 70:30. The retention times and the peak areas were noted. Extraction efficiency for the selected system was determined. The following possible pharmacokinetic parameters for both iv solution administration as well as ip microsphere administration were determined using WinNonlin: Ka, ke, Vd, elimination t1/2, absorption t1/2, Tmax, Cmax. Further, using Wagner-Nelson method cumulative amount of drug released into the plasma was determined.

[2] = serum, final day, solution i.v. twice daily, microspheres 20 mg i.p. one time

For `O=C(/C=C/c1ccc(Cl)cc1)CC(=O)/C=C/c1ccc(Cl)cc1` [4-chlorocurcumin], the “Hepatoprotective activity (reversal of SGOT and SGPT versus toxic control CCl4)” value (CCl4-treated rat model) was “although statistically significant, was not reduced to reach the normal levels”, the Histology of liver (CCl4-treated rat model; end of study) was “Normal liver” and the SGOT (CCl4-treated rat model; [2]) was 42.10±1.5 u/1. For the same compound, the SGPT (CCl4-treated rat model; [2]) was 25.7±1.8 u/1, the “Body weights on day 9” value (CCl4-treated rat model; solution i.v. twice daily, microspheres 20 mg i.p. one time) was 190 ± 18 g and the AUC [1] was 227 µg·h/mL. It also gave a Cmax [1] of 196 µg/mL, a Tmax [1] of 0.5 h and a Vd [1] of 0.0235 L. For the same compound, the clearance [1] was 0.137 mL/min and the half-life [1] was 1.99 h.

Reference: PMC3003168, “Preparation and In vitro / In vivo characterization of spray dried microsphere formulation encapsulating 4-chlorocurcumin” (Indian Journal of Pharmaceutical Sciences, 2010)
